We go through 19 molecules from patent US20260327214A1, “1,3,4-OXADIAZOLE DERIVATIVE COMPOUNDS AS HISTONE DEACETYLASE 6 INHIBITOR, AND USES THEREOF” (CHONG KUN DANG PHARMACEUTICAL CORP., priority 2022, published 2026).

A value given as a limit tells only on which side of the number the result lay.

For one test, the target named is T1, human recombinant HDAC6 (Homo sapiens, UniProt Q9UBN7).
T1 construct: purchased Calbiochem 382180
T1 sequence (Q9UBN7 1-1215): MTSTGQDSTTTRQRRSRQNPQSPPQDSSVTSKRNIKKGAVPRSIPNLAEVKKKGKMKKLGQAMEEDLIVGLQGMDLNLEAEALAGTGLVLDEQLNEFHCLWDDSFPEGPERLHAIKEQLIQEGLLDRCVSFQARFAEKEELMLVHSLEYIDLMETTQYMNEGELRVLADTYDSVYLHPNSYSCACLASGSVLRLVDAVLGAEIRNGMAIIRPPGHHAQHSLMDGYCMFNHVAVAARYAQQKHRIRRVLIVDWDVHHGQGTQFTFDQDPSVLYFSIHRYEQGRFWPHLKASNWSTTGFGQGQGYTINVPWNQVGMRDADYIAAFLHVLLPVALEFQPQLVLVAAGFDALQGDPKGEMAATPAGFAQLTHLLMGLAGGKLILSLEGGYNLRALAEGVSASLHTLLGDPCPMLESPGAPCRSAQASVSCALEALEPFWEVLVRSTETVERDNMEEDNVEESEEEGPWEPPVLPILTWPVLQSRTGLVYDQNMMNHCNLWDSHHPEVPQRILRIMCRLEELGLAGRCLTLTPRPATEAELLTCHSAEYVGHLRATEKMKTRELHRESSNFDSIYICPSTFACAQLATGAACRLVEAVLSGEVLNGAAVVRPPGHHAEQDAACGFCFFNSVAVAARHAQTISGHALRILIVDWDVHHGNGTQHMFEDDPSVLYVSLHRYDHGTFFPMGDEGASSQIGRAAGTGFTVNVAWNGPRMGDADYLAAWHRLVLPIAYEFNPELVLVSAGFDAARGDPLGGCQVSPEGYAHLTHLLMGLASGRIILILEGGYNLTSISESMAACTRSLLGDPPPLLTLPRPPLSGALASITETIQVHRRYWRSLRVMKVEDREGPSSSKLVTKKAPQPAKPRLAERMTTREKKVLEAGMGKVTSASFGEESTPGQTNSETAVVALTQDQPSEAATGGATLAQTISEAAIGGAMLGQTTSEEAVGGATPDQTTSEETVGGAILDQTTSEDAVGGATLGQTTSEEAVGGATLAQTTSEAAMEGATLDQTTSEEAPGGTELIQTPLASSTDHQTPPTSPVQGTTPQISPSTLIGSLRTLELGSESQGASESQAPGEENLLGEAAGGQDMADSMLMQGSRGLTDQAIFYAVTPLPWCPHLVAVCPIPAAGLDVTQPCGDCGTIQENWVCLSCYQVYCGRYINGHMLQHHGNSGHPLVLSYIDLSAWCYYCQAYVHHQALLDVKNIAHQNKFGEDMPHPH
The test is described as follows: HDAC6 enzyme activity inhibition test (HDAC Fluorometric Drug Discovery Kit). It is filed as biochemical. The following applies: for HDAC6 selectivity (fold): HDAC6 over HDAC1; for IC50: human recombinant HDAC6, same protocol as HDAC1. Put shortly: (§1)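 IC50 derived from fluorescence (Ex 360, Em 460) following 30 min development with Developer II. Each reaction held 0.3 μg human recombinant HDAC1 or HDAC6, 10 μM Fluor de Lys SIRT1 substrate and 5-fold serially diluted compound, incubated 60 min at 30 °C.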

The target of the next test is T2, human recombinant HDAC1 (Homo sapiens, UniProt Q13547).
T2 construct: purchased Enzo Life Science BML-SE456
T2 sequence (Q13547 whole entry): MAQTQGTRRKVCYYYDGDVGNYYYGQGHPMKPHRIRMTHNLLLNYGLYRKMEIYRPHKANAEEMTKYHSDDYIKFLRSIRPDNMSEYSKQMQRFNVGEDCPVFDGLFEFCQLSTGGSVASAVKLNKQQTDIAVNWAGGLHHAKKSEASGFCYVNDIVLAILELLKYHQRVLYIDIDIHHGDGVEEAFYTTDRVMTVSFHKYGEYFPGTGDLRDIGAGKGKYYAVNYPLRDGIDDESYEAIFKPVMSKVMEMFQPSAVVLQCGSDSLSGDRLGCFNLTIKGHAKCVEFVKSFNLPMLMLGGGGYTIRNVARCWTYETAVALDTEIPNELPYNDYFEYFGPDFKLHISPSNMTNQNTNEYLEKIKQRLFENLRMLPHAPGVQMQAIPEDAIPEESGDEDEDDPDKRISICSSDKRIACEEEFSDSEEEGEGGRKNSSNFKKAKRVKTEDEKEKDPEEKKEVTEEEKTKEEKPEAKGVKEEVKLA
Nature of the test: HDAC1 enzyme activity inhibition test (HDAC Fluorometric Drug Discovery Kit). It is filed as biochemical. The note with it: 30° C., 60 minutes, 10 μM substrate. Put shortly:
as §1

In the case of `FC(F)c1nnc(-c2ccc(Cn3nc(-c4ccc(CN5CCN(C6CCCC6)CC5)cc4)oc3=S)nc2)o1` [Compound 79, 5-[4-[(4-cyclopentylpiperazin-1-yl)methyl]phenyl]-3-[[5-[5-(difluoromethyl)-1,3,4-oxadiazol-2-yl]-2-pyridyl]methyl]-1,3,4-oxadiazol-2-thione], at human recombinant HDAC6, the “HDAC6 selectivity (fold)” value came to 461 fold and the IC50 (as a rule, the concentration at which inhibition is half-maximal) is 108 nM. The half-maximal inhibitory concentration (IC50) on human recombinant HDAC1 is > 50000 nM.

With `CN1CCC(c2cc(-c3nn(Cc4ccc(-c5nnc(C(F)F)o5)cn4)c(=S)o3)ccc2F)CC1` [Compound 115, 3-[[5-[5-(difluoromethyl)-1,3,4-oxadiazol-2-yl]-2-pyridyl]methyl]-5-[4-fluoro-3-(1-methyl-4-piperidyl)phenyl]-1,3,4-oxadiazol-2-thione], at human recombinant HDAC6, the “HDAC6 selectivity (fold)” value was determined as 483 fold and the IC50 stood at 104 nM. The IC50 at human recombinant HDAC1 was > 50000 nM.

As for `O=c1oc(-c2ccc3ccccc3n2)nn1Cc1ccc(-c2nnc(C(F)F)o2)cn1` [Compound 42, 3-[[5-[5-(difluoromethyl)-1,3,4-oxadiazol-2-yl]-2-pyridyl]methyl]-5-(2-quinolyl)-1,3,4-oxadiazol-2-one], on human recombinant HDAC6, the “HDAC6 selectivity (fold)” value was 975 fold and the IC50 was 51.3 nM. The IC50 at human recombinant HDAC1 was > 50000 nM.

On to `O=c1sc(-c2cccs2)nn1Cc1ccc(-c2nnc(C(F)F)o2)cn1` [Compound 44, 3-[[5-[5-(difluoromethyl)-1,3,4-oxadiazol-2-yl]2-pyridyl]methyl]-5-(2-thienyl)-1,3,4-thiadiazol-2-one], for which, at human recombinant HDAC6, the “HDAC6 selectivity (fold)” value was determined as 704 fold and the IC50 was found to be 71 nM. Also, the IC50 at human recombinant HDAC1 was > 50000 nM.

Turning to `CN1CCc2cc(-c3nn(Cc4ccc(-c5nnc(C(F)F)o5)cn4)c(=S)o3)sc2C1` [Compound 139, 3-[[5-[5-(difluoromethyl)-1,3,4-oxadiazol-2-yl]-2-pyridyl]methyl]-5-(6-methyl-5,7-dihydro-4H-thieno[2,3-c]pyridin-2-yl)-1,3,4-oxadiazol-2-thione], at human recombinant HDAC6, the “HDAC6 selectivity (fold)” value was 552 fold and the IC50 was found to be 90.6 nM. The IC50 at human recombinant HDAC1 is > 50000 nM.

Take `CN1CCc2cc(-c3nn(Cc4ncc(-c5nnc(C(F)F)o5)cc4F)c(=S)o3)ccc2C1` [Compound 135, 3-[[5-[5-(difluoromethyl)-1,3,4-oxadiazol-2-yl]-3-fluoro-2-pyridyl]methyl]-5-(2-methyl-3,4-dihydro-1H-isoquinolin-6-yl)-1,3,4-oxadiazol-2-thione]: at human recombinant HDAC6, the “HDAC6 selectivity (fold)” value was 741 fold and the IC50 came to 67.5 nM. Moreover, the IC50 at human recombinant HDAC1 was > 50000 nM.

As for `FC(F)c1nnc(-c2ccc(Cn3nc(-c4cccc(CN5CCOCC5)c4)oc3=S)nc2)o1` [Compound 99, 3-[[5-[5-(difluoromethyl)-1,3,4-oxadiazol-2-yl]-2-pyridyl]methyl]-5-[3-(morpholinomethyl)phenyl]-1,3,4-oxadiazol-2-thione], at human recombinant HDAC6, the “HDAC6 selectivity (fold)” value is 511 fold and the IC50 was found to be 97.8 nM. Besides, at human recombinant HDAC1, the IC50 was > 50000 nM.

For `Fc1cc(-c2nnc(C(F)F)o2)cnc1Cn1nc(-c2cnccn2)oc1=S` [Compound 53, 3-[[5-[5-(difluoromethyl)-1,3,4-oxadiazol-2-yl]-3-fluoro-2-pyridyl]methyl]-5-pyrazine-2-yl-1,3,4-oxadiazol-2-thione], on human recombinant HDAC6, the “HDAC6 selectivity (fold)” value is recorded as 560 fold and the half-inhibitory concentration (IC50) is 89.3 nM. Besides, the IC50 at human recombinant HDAC1 is > 50000 nM.

With `Fc1c(-c2nn(Cc3ccc(-c4nnc(C(F)F)o4)cn3)c(=S)o2)cccc1C1CCN(C2CCC2)CC1` [Compound 81, 5-[3-(1-cyclobutyl-4-piperidyl)-2-fluoro-phenyl]-3-[[5-[5-(difluoromethyl)-1,3,4-oxadiazol-2-yl]-2-pyridyl]methyl]-1,3,4-oxadiazol-2-thione], on human recombinant HDAC6, the “HDAC6 selectivity (fold)” value was 576 fold. Also, the figures for the IC50 on human recombinant HDAC6 and at human recombinant HDAC1 were 86.8 nM and > 50000 nM, respectively.

Turning to `Cn1ccc2ccc(-c3nn(Cc4ccc(-c5nnc(C(F)F)o5)cn4)c(=O)o3)cc21` [Compound 31, 3-[[5-[5-(difluoromethyl)-1,3,4-oxadiazol-2-yl]-2-pyridyl]methyl]-5-(1-methylindol-6-yl)-1,3,4-oxadiazol-2-one], at human recombinant HDAC6, the “HDAC6 selectivity (fold)” value came to 643 fold and the IC50 worked out at 77.8 nM. Moreover, the IC50 on human recombinant HDAC1 was > 50000 nM.

As for `FC(F)c1nnc(-c2ccc(Cn3nc(-c4cccnc4)oc3=S)nc2)o1` [Compound 52, 3-[[5-[5-(difluoromethyl)-1,3,4-oxadiazol-2-yl]-2-pyridyl]methyl]-5-(3-pyridyl)-1,3,4-oxadiazol-2-thione], on human recombinant HDAC6, the “HDAC6 selectivity (fold)” value is listed as 473 fold. Also, the 50% inhibitory concentration (IC50) on human recombinant HDAC6 is 106 nM; at human recombinant HDAC1, > 50000 nM.

`O=C1OCC(c2ccccc2)=NN1Cc1ncc(-c2nnc(C(F)F)o2)cc1F` [Compound 71, 3-[[5-[5-(difluoromethyl)-1,3,4-oxadiazol-2-yl]-3-fluoro-2-pyridyl]methyl]-5-phenyl-6H-1,3,4-oxadiazin-2-one]: on human recombinant HDAC6, the “HDAC6 selectivity (fold)” value is 510 fold and the IC50 was found to be 98 nM. Moreover, the IC50 on human recombinant HDAC1 is > 50000 nM.

Take `O=c1sc(-c2ccc(CN3CCN(C4CS(=O)(=O)C4)CC3)cc2)nn1Cc1ccc(-c2nnc(C(F)F)o2)cn1` [Compound 68]: on human recombinant HDAC6, the “HDAC6 selectivity (fold)” value amounted to 473 fold and the IC50 stood at 106 nM. Besides, the IC50 on human recombinant HDAC1 is > 50000 nM.

Take `CN(C)Cc1ccc(-c2nn(Cc3ccc(-c4nnc(C(F)F)o4)cn3)c(=S)o2)s1` [Compound 121, 3-[[5-[5-(difluoromethyl)-1,3,4-oxadiazol-2-yl]-2-pyridyl]methyl]-5-[5-[(dimethylamino)methyl]-2-thienyl]-1,3,4-oxadiazol-2-thione]: at human recombinant HDAC6, the “HDAC6 selectivity (fold)” value turned out to be 639 fold. In addition, the 50% inhibitory concentration (IC50) on human recombinant HDAC6 is 78.2 nM; on human recombinant HDAC1 it was > 50000 nM.

Turning to `CCN(CC)Cc1ccc(-c2nn(Cc3ncc(-c4nnc(C(F)F)o4)cc3F)c(=S)o2)cc1` [Compound 109, 5-[4-(diethylaminomethyl)phenyl]-3-[[5-[5-(difluoromethyl)-1,3,4-oxadiazol-2-yl]-3-fluoro-2-pyridyl]methyl]-1,3,4-oxadiazol-2-thione], on human recombinant HDAC6, the “HDAC6 selectivity (fold)” value is reported as 1020 fold and the IC50 stood at 49 nM. Also, the IC50 at human recombinant HDAC1 was > 50000 nM.

Turning to `FC(F)c1nnc(-c2ccc(Cn3nc(-c4ccc(CN5CCCC5)cc4)oc3=S)nc2)o1` [Compound 93, 3-[[5-[5-(difluoromethyl)-1,3,4-oxadiazol-2-yl]-2-pyridyl]methyl]-5-[4-(pyrrolidin-1-ylmethyl)phenyl]-1,3,4-oxadiazol-2-thione], at human recombinant HDAC6, the “HDAC6 selectivity (fold)” value was 2890 fold and the half-maximal inhibitory concentration (IC50) turned out to be 17.3 nM. For the same molecule, the IC50 at human recombinant HDAC1 was > 50000 nM.

`Cn1ccc2cc(-c3nn(Cc4ccc(-c5nnc(C(F)F)o5)cn4)c(=O)o3)cnc21` [Compound 32, 3-[[5-[5-(difluoromethyl)-1,3,4-oxadiazol-2-yl]-2-pyridyl]methyl]-5-(1-methylpyrrolo[2,3-b]pyridin-5-yl)-1,3,4-oxadiazol-2-one]: at human recombinant HDAC6, the “HDAC6 selectivity (fold)” value is 774 fold and the IC50 stood at 64.6 nM. Moreover, the IC50 on human recombinant HDAC1 was > 50000 nM.

`FC(F)c1nnc(-c2ccc(Cn3nc(-c4ccc(CN5CCN(C6CCC6)CC5)cc4)oc3=S)nc2)o1` [Compound 78, 5-[4-[(4-cyclobutylpiperazin-1-yl)methyl]phenyl]-3-[[5-[5-(difluoromethyl)-1,3,4-oxadiazol-2-yl]-2-pyridyl]methyl]-1,3,4-oxadiazol-2-thione]: on human recombinant HDAC6, the “HDAC6 selectivity (fold)” value came out at 498 fold and the IC50 was found to be 100 nM. In addition, the IC50 on human recombinant HDAC1 is > 50000 nM.

Take `FC(F)c1nnc(-c2ccc(Cn3nc(-c4ccc(CN5CC[C@@H](F)C5)s4)oc3=S)nc2)o1` [Compound 124, 3-[[5-[5-(difluoromethyl)-1,3,4-oxadiazol-2-yl]-2-pyridyl]methyl]-5-[5-[[(3R)-3-fluoropyrrolidin-1-yl]methyl]-2-thienyl]-1,3,4-oxadiazol-2-thione]: on human recombinant HDAC6, the “HDAC6 selectivity (fold)” value was found to be 491 fold and the IC50 worked out at 102 nM. The 50% inhibitory concentration (IC50) on human recombinant HDAC1 is > 50000 nM.
